In ChEMBL document CHEMBL1201862, “PubChem BioAssay data set” (2004):
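A five-concentration, 48-hour dose response in 96-well plates underlies each endpoint, interpolated linearly between surrounding concentrations. GI50 = concentration required for 50% inhibition of growth.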 Calls of active or inactive are those of the source. No stated cut-off is given here; in the data, active = GI50 up to about 1.1 µM and inactive = higher.

How the values were obtained:
Assay in all cases: NCI-60 cell line screen, 48 h
[1] = test system: SNB-75
[2] = test system: SK-OV-3
[3] = test system: M14
[4] = test system: KM12
[5] = test system: NCI-H522
[6] = test system: MDA-MB-231
[7] = test system: SR
[8] = test system: OVCAR-5
[9] = test system: SW-620
[10] = test system: EKVX
[11] = test system: SF-295
[12] = test system: IGROV-1
[13] = test system: SF-539
[14] = test system: NCI/ADR-RES
[15] = test system: MOLT-4
[16] = test system: NCI-H226
[17] = test system: SNB-19
[18] = test system: UACC-62
[19] = test system: HCC 2998

| SMILES | GI50 [1] | GI50 [2] | GI50 [3] | GI50 [4] | GI50 [5] | GI50 [6] | GI50 [7] | GI50 [8] | GI50 [9] | GI50 [10] | GI50 [11] | GI50 [12] | GI50 [13] | GI50 [14] | GI50 [15] | GI50 [16] | GI50 [17] | GI50 [18] | GI50 [19] |
| --- | --- | --- | --- | --- | --- | --- | --- | --- | --- | --- | --- | --- | --- | --- | --- | --- | --- | --- | --- |
| O=C(O)CC1(CC(=O)O)Nc2ccccc2SC1=O | > 100 µM (inactive) | > 100 µM (inactive) | > 100 µM (inactive) | > 100 µM (inactive) | > 100 µM (inactive) | > 100 µM (inactive) | > 100 µM (inactive) | > 100 µM (inactive) | > 100 µM (inactive) | > 100 µM (inactive) | > 100 µM (inactive) | > 100 µM (inactive) | 0.0904 µM (active) | > 100 µM (inactive) | > 100 µM (inactive) | > 100 µM (inactive) | > 100 µM (inactive) | > 100 µM (inactive) | > 100 µM (inactive) |
| N/N=C1N=C(Cl)/C(=C/c2ccco2)N\1 | 32.7 µM (inactive) | 76 µM (inactive) | 35.2 µM (inactive) | 28.2 µM (inactive) | 22.7 µM (inactive) | > 100 µM (inactive) | 25.8 µM (inactive) | > 100 µM (inactive) | 41.5 µM (inactive) | > 100 µM (inactive) | 38.1 µM (inactive) | 42.4 µM (inactive) | 22.4 µM (inactive) | 44.5 µM (inactive) | 11.9 µM (inactive) | > 100 µM (inactive) | 50.5 µM (inactive) | – | 27.6 µM (inactive) |
| N#CCC12CC=CCC1=C(O)C(=O)c1ccc(O)cc12 (stereo not given) | 67.6 µM (inactive) | > 100 µM (inactive) | 55.7 µM (inactive) | > 100 µM (inactive) | > 100 µM (inactive) | > 100 µM (inactive) | 90.8 µM (inactive) | > 100 µM (inactive) | > 100 µM (inactive) | > 100 µM (inactive) | > 100 µM (inactive) | > 100 µM (inactive) | > 100 µM (inactive) | > 100 µM (inactive) | > 100 µM (inactive) | 68.5 µM (inactive) | > 100 µM (inactive) | > 100 µM (inactive) | > 100 µM (inactive) |
| CCOC(=O)NC(NC1=NCCS1)(C(=O)OCC)C(F)(F)F (stereo not given) | > 100 µM (inactive) | > 100 µM (inactive) | > 100 µM (inactive) | > 100 µM (inactive) | > 100 µM (inactive) | > 100 µM (inactive) | > 100 µM (inactive) | > 100 µM (inactive) | > 100 µM (inactive) | > 100 µM (inactive) | > 100 µM (inactive) | > 100 µM (inactive) | > 100 µM (inactive) | > 100 µM (inactive) | > 100 µM (inactive) | > 100 µM (inactive) | > 100 µM (inactive) | – | > 100 µM (inactive) |
| COc1ccc2nc3cc(Cl)ccc3c(Nc3ccc(O)c(CN4CCN(C)CC4)c3)c2c1 | 1.62 µM (inactive) | 5.79 µM (inactive) | 1.99 µM (inactive) | 1.91 µM (inactive) | 1.78 µM (inactive) | 1.52 µM (inactive) | 0.676 µM (active) | 2.41 µM (inactive) | 1.99 µM (inactive) | 1.74 µM (inactive) | 1.91 µM (inactive) | 1.71 µM (inactive) | 1.79 µM (inactive) | 2.08 µM (inactive) | 1.93 µM (inactive) | 20.5 µM (inactive) | 2.43 µM (inactive) | 1.72 µM (inactive) | 1.19 µM (inactive) |
| CO/N=C1/C(n2[nH]c(=O)n(-c3ccccc3)c2=O)C2C=CC1n1c(=O)n(-c3ccccc3)c(=O)n12 (stereo not given) | > 100 µM (inactive) | > 100 µM (inactive) | > 100 µM (inactive) | > 100 µM (inactive) | > 100 µM (inactive) | > 100 µM (inactive) | > 100 µM (inactive) | > 100 µM (inactive) | > 100 µM (inactive) | > 100 µM (inactive) | – | > 100 µM (inactive) | > 100 µM (inactive) | > 100 µM (inactive) | > 100 µM (inactive) | > 100 µM (inactive) | > 100 µM (inactive) | > 100 µM (inactive) | > 100 µM (inactive) |
| COC(=O)c1ccccc1CC1Cc2cc3c(cc2C1)CCC3 | 26.7 µM (inactive) | 49.4 µM (inactive) | 38.8 µM (inactive) | 26.5 µM (inactive) | 28.6 µM (inactive) | 55.1 µM (inactive) | 5.58 µM (inactive) | 50.4 µM (inactive) | 53.5 µM (inactive) | 45.5 µM (inactive) | 33.7 µM (inactive) | 37.3 µM (inactive) | 54.2 µM (inactive) | > 100 µM (inactive) | 18.5 µM (inactive) | 35.2 µM (inactive) | 74.1 µM (inactive) | – | 42.5 µM (inactive) |
| Cc1nnc(SCc2nc(C#N)c(C#N)nc2CSc2nnc(C)s2)s1 | 19.8 µM (inactive) | 33.3 µM (inactive) | 16.6 µM (inactive) | 19.3 µM (inactive) | 3.34 µM (inactive) | 16.6 µM (inactive) | 4.6 µM (inactive) | 18.1 µM (inactive) | 3.43 µM (inactive) | 14.7 µM (inactive) | 39.4 µM (inactive) | 16.8 µM (inactive) | 19.6 µM (inactive) | 30.6 µM (inactive) | 2.51 µM (inactive) | 25.1 µM (inactive) | 47.5 µM (inactive) | 15.8 µM (inactive) | 16.5 µM (inactive) |
| CCCCCCCCCCC/C=C(/C(=O)CCCO[Si](C)(C)C(C)(C)C)C(=O)OC | > 100 µM (inactive) | > 100 µM (inactive) | > 100 µM (inactive) | > 100 µM (inactive) | > 100 µM (inactive) | > 100 µM (inactive) | > 100 µM (inactive) | > 100 µM (inactive) | > 100 µM (inactive) | > 100 µM (inactive) | > 100 µM (inactive) | > 100 µM (inactive) | > 100 µM (inactive) | > 100 µM (inactive) | > 100 µM (inactive) | > 100 µM (inactive) | > 100 µM (inactive) | > 100 µM (inactive) | > 100 µM (inactive) |
| O=C(OCc1ccccc1)C1(N2CN(C3(C(=O)OCc4ccccc4)CCCC3)CN(C3(C(=O)OCc4ccccc4)CCCC3)C2)CCCC1 | > 10 µM (inactive) | > 10 µM (inactive) | > 10 µM (inactive) | > 10 µM (inactive) | > 10 µM (inactive) | > 10 µM (inactive) | > 10 µM (inactive) | > 10 µM (inactive) | > 10 µM (inactive) | > 10 µM (inactive) | > 10 µM (inactive) | > 10 µM (inactive) | > 10 µM (inactive) | > 10 µM (inactive) | > 10 µM (inactive) | > 10 µM (inactive) | > 10 µM (inactive) | > 10 µM (inactive) | > 10 µM (inactive) |
| Clc1cc(Cl)ncn1 | > 100 µM (inactive) | > 100 µM (inactive) | > 100 µM (inactive) | > 100 µM (inactive) | > 100 µM (inactive) | > 100 µM (inactive) | > 100 µM (inactive) | > 100 µM (inactive) | > 100 µM (inactive) | – | > 100 µM (inactive) | > 100 µM (inactive) | > 100 µM (inactive) | > 100 µM (inactive) | > 100 µM (inactive) | > 100 µM (inactive) | > 100 µM (inactive) | > 100 µM (inactive) | > 100 µM (inactive) |
| C[C@]12CC[C@H](O)CC1=CC[C@@H]1[C@@H]2CC[C@]2(C)C(=O)[C@@H](N3CCOCC3)C[C@@H]12 | 30.6 µM (inactive) | > 100 µM (inactive) | 78.5 µM (inactive) | > 100 µM (inactive) | 23.6 µM (inactive) | > 100 µM (inactive) | 44.2 µM (inactive) | > 100 µM (inactive) | > 100 µM (inactive) | 40.6 µM (inactive) | > 100 µM (inactive) | > 100 µM (inactive) | > 100 µM (inactive) | 61.2 µM (inactive) | 55.3 µM (inactive) | > 100 µM (inactive) | > 100 µM (inactive) | 76.4 µM (inactive) | > 100 µM (inactive) |
| CCOc1cc2c(cc1O)C=C[C@@H]1[C@@H]2CC[C@]2(C)[C@@H](O)CC[C@@H]12 | 3.3 µM (inactive) | 3.34 µM (inactive) | 2.8 µM (inactive) | 5.3 µM (inactive) | 1.77 µM (inactive) | 4.11 µM (inactive) | 0.472 µM (active) | 27.6 µM (inactive) | 1.87 µM (inactive) | 4.79 µM (inactive) | 1.91 µM (inactive) | 2.88 µM (inactive) | 2.04 µM (inactive) | 1.37 µM (inactive) | 2.91 µM (inactive) | 4.06 µM (inactive) | 3.52 µM (inactive) | 4.07 µM (inactive) | 6.34 µM (inactive) |
| N=C(N)SCc1ccc2c(c1)Sc1ccccc1O2 | 5.65 µM (inactive) | 12.9 µM (inactive) | 2.16 µM (inactive) | 5.32 µM (inactive) | 1.44 µM (inactive) | 10.3 µM (inactive) | 5.78 µM (inactive) | 11.6 µM (inactive) | 5.85 µM (inactive) | 11.6 µM (inactive) | 10.5 µM (inactive) | 3.34 µM (inactive) | 2.07 µM (inactive) | 6.65 µM (inactive) | 7.71 µM (inactive) | 11.2 µM (inactive) | 11.4 µM (inactive) | 4.62 µM (inactive) | 2.35 µM (inactive) |
| NC(C(=O)O)c1cc(O)no1 (stereo not given) | > 100 µM (inactive) | > 100 µM (inactive) | > 100 µM (inactive) | > 100 µM (inactive) | > 100 µM (inactive) | > 100 µM (inactive) | > 100 µM (inactive) | > 100 µM (inactive) | > 100 µM (inactive) | > 100 µM (inactive) | > 100 µM (inactive) | > 100 µM (inactive) | > 100 µM (inactive) | > 100 µM (inactive) | > 100 µM (inactive) | > 100 µM (inactive) | > 100 µM (inactive) | > 100 µM (inactive) | > 100 µM (inactive) |
